Measured values from the Kinase Knowledgebase extract (Sharma et al. 2016).
“And” between values parts separate entries of the source, which are not always exact repeats. Equal entries are not always repeated.

Assays:
[1] = target: EGFR (human), P00533 [WT]
[2] = target: EGFR (Human), P00533 [T790M/L858R]
[3] = target: EGFR (human) (UniProt P00533); conditions: hcc827
Sequence of EGFR (human) (P00533 whole entry, looked up): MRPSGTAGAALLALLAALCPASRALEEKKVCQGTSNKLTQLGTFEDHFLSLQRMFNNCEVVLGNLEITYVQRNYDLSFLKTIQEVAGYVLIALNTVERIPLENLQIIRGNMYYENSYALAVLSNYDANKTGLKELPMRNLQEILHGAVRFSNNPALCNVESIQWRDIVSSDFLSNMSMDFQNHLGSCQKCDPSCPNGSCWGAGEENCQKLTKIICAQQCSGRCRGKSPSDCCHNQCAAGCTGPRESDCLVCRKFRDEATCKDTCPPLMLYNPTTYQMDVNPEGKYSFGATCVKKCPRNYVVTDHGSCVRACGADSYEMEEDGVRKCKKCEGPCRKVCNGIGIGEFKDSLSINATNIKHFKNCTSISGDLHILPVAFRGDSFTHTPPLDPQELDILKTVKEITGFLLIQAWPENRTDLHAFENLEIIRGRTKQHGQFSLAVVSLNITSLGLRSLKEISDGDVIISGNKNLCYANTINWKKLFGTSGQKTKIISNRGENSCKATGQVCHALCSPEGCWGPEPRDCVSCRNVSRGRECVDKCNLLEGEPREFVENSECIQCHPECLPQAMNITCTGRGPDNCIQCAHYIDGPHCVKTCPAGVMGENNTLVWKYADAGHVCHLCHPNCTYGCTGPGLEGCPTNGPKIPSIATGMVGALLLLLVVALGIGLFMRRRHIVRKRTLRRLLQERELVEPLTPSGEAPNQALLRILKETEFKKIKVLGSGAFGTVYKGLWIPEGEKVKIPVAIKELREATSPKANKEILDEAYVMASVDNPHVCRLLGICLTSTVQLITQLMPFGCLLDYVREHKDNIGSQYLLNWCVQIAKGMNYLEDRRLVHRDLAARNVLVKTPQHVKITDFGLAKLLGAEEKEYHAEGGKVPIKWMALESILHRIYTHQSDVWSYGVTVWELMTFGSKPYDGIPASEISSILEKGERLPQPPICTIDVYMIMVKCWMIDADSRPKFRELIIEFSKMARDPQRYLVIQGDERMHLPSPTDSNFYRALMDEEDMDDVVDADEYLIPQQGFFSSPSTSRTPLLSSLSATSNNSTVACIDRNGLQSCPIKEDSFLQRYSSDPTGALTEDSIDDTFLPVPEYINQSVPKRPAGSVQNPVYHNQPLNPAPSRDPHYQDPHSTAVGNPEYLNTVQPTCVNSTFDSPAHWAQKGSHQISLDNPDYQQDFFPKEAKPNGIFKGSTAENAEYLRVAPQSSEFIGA

Sequence of EGFR (human), P00533 [WT] (P00533 whole entry, looked up): as above
Sequence of EGFR (Human), P00533 [T790M/L858R] (P00533 whole entry T790M/L858R, looked up): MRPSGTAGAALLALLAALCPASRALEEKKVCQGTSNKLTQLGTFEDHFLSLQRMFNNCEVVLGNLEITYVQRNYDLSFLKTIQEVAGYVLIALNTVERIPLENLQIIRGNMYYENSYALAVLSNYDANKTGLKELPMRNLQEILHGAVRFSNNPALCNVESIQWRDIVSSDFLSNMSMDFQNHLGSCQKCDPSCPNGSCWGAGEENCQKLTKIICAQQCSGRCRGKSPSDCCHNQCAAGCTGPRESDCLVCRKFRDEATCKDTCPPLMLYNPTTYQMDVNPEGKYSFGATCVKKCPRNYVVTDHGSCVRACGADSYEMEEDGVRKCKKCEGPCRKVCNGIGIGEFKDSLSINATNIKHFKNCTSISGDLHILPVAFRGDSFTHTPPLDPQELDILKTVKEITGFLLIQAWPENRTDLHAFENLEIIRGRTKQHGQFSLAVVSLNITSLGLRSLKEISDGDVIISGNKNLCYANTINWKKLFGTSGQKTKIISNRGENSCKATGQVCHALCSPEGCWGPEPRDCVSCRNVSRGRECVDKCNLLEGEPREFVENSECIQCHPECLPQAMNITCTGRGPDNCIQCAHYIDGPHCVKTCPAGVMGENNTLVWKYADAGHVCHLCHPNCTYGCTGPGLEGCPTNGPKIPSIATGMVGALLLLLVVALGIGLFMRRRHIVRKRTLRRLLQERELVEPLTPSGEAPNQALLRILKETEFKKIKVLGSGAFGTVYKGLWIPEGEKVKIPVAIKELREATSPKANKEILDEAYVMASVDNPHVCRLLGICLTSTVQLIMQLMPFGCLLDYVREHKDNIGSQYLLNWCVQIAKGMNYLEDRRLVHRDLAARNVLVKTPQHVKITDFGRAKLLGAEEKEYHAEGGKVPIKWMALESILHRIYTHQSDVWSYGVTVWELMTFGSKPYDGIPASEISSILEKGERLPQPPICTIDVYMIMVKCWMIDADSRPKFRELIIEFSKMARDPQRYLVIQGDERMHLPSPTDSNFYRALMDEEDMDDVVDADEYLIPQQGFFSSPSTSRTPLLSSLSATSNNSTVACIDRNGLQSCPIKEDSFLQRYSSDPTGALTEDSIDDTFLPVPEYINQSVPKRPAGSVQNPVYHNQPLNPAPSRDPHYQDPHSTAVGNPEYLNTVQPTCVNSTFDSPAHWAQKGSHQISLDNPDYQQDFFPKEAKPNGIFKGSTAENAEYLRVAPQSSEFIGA

Row | SMILES | IC50 [1] | IC50 [2] [µM] | IC50 [3] [µM]
1 | C[C@@H](Nc1ncnc2sc3c(c12)CCCC3)c1ccccc1 | 3.24 µM |  | 
2 | CN(C)C/C=C/C(=O)N1CCc2c(sc3ncnc(N[C@H](CO)c4ccccc4)c23)C1 | 0.007 µM and 0.006 µM |  | 
3 | CN1CCN(C/C=C/C(=O)N2CCc3c(sc4ncnc(N[C@H](CO)c5ccccc5)c34)C2)CC1 |  | > 10 | 
4 | c1ccc(CNc2ncnc3sc4c(c23)CCCC4)cc1 | 2.6 µM | > 10 | > 10
5 | C=CC(=O)N1CCc2c(sc3ncnc(N[C@@H](CO)c4ccccc4)c23)C1 |  | > 10 | 

More lines, now with the values ahead:

Row | IC50 [1] | IC50 [2] [µM] | IC50 [3] [µM] | SMILES
6 |  | > 10 |  | OC[C@@H](Nc1ncnc2sc3c(c12)CCCC3)c1ccccc1
7 |  | > 10 |  | O=C(/C=C/c1ccccc1)N1CCc2c(sc3ncnc(N[C@H](CO)c4ccccc4)c23)C1
8 |  | > 10 |  | CN(C)C/C=C/C(=O)N1CCc2c(sc3ncnc(NCCO)c23)C1
9 |  | > 10 |  | CCC(=O)N1CCc2c(sc3ncnc(N[C@H](CO)c4ccccc4)c23)C1
10 |  | > 10 |  | OC[C@@H](Nc1ncnc2sc3c(c12)CCNC3)c1ccccc1
11 |  | > 10 |  | CN(C)C/C=C/C(=O)N1CCc2c(sc3ncnc(N[C@@H](CO)c4ccccc4)c23)C1
